Data taken from PMC10030653, “ClpC2 protects mycobacteria against a natural antibiotic targeting ClpC1-dependent protein degradation” (Communications Biology, 2023).
Numbered stars: 1 amine (or outer) side, 2 acyl side, 3 side chain; on linkers, the order of the positions; unused ones are H or OH. Square brackets hold non-standard residues; d marks the D form. Peptide text beside a SMILES is read from it. X1 = CC(C)([C@@H]1CO1)n1cc([C@@H](O)[C@H](N[*:1])C(=O)[*:2])c2ccccc21; Ala(3R-Me,3-isobutenyl) = CC(C)=C[C@@H](C)[C@H](N)C(=O)O; NMeLeu(5-OH,4R) = CN[C@@H](C[C@@H](C)CO)C(=O)O; Phe(βR-OMe) = CO[C@H](c1ccccc1)[C@H](N)C(=O)O; NMeL = CN[C@@H](CC(C)C)C(=O)O

How the values were obtained:
ClpC1 [1] = conditions: cited from earlier work
[2] = test system: ClpC1 hexamer/ClpP1P2 tetradecamer (ClpC1P); test: FITC-casein degradation assay; type: biochemical, Mycobacterium tuberculosis; conditions: 2 μM CymA
Description: Degradation of FITC-casein (Sigma) was carried out in 50 mM HEPES-KOH pH 7.1, 150 mM KCl, 20 mM MgCl2, 10% glycerol by 0.5 μM ClpC1 hexamer and 0.8 μM ClpP1P2 tetradecamer with the addition of 0.4 mM activator peptide benzyloxycarbonyl-L-leucyl-L-leucinal (PeptaNova), 0.5 mM DTT, 1 U/ml creatine phosphokinase, 20 mM phosphocreatine, 10 mM ATP at 37 °C. […] Whereas the effect of an excess of ClpC2 on the degradation of FITC-casein (10 μM) was carried out in the presence of 100 μM ClpC2. Fluorescence intensity increases upon degradation of FITC-casein as a consequence of fluorophore dequenching was monitored using the BioTek Synergy 2 Plate Reader with a 485/20 nm band-pass […] filter. Rates of degradation were determined from the initial slopes and used to determine the CymA-induced stimulation of ClpC1P activity at the different concentrations of ClpC2.

ClpC2 [3] = type: cell-based, Mycobacterium smegmatis; conditions: Msm WT, OD600 0.5, 150 nM CymA, 37 °C, from 1 h to 8 h after addition
ClpC1 [4] = conditions: Msm, 150 nM CymA, 0-8 h
ClpC1 NTD = conditions: cited from earlier work
[5] = test system: ClpC2 / clpC2 operator DNA; test: EMSA, ClpC2 binding to clpC2 operator DNA; design: species or system Mycobacterium tuberculosis; conditions: for fraction of DNA bound to ClpC2: 1 μM CymA
Mycobacterium smegmatis = test: Growth curves of Msm strains with CymA
Description: Mycobacterium smegmatis MC^2155 SMR5 and derived strains were routinely grown at 37 °C with shaking in DIFCO™ Middlebrook7H9 broth (BD) supplemented with 0.05% Tween 80 and 0.2% glycerol. The antibiotics apramycin (50 µg/ml) or hygromycin B (100 µg/ml) were added as needed. […] The DMSO concentration of cultures was maintained at less than 1% in all instances.
Msm cultures were diluted to an OD600 of 0.005 in 7H9. […] The cultures were grown at 37 °C with shaking (200 rpm) and the culture growth monitored by periodically measuring the OD600.

Escherichia coli = conditions: cited from earlier work
Text: (§1) CymA is a cyclic heptapeptide that is synthesised by the marine bacterium Streptomyces sp. CNB-982[33]–[35].

Staphylococcus aureus = conditions: cited from earlier work
Text: as §1

mycobacteria = conditions: cited from earlier work
clpC2 mRNA = test: RT-qPCR of clpC2 expression after CymA; type: cell-based, Mycobacterium smegmatis; conditions: Msm, 150 nM CymA; for Cq value ClpC2 / Cq value RpoB (reference gene): 1 h
ClpC2 [6] = type: cell-based, Mycobacterium smegmatis; conditions: Msm, 150 nM CymA, around 8 h after addition
[7] = molecular target: Mtb ClpC1 NTD (ClpC1^1-145) (Mycobacterium tuberculosis, UniProt P9WPC9); test: biochemical; type: binding
Sequence of Mtb ClpC1 NTD (ClpC1^1-145) (P9WPC9 1-145): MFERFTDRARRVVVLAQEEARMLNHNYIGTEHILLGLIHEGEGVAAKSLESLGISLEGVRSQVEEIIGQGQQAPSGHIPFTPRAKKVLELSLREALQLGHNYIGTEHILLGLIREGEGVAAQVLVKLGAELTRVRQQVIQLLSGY

CO[C@H](c1ccccc1)[C@@H]1NC(=O)[C@H](C)NC(=O)[C@H](C[C@@H](C)CO)N(C)C(=O)[C@H]([C@H](O)c2cn(C(C)(C)[C@@H]3CO3)c3ccccc23)NC(=O)[C@H]([C@H](C)C=C(C)C)NC(=O)[C@H](CC(C)C)N(C)C(=O)[C@H](C(C)C)NC1=O [CymA, cyclomarin A] (cyclo(A[Phe(βR-OMe)]V[NMeL][Ala(3R-Me,3-isobutenyl)][X1][NMeLeu(5-OH,4R)]))
effect on ClpC1 ATPase and proteolytic activity (ClpC1 [1]): enhance the ATPase and proteolytic activity as well as reduce substrate specificity of ClpC1
FITC-casein degradation rate ([2]; 0 μM ClpC2, 37 °C, replicate 1): 8.073 min⁻¹
FITC-casein degradation rate ([2]; 0 μM ClpC2, 37 °C, replicate 2): 7.688 min⁻¹
FITC-casein degradation rate ([2]; 0 μM ClpC2, 37 °C, replicate 3): 7.795 min⁻¹
FITC-casein degradation rate ([2]; 0.2 μM ClpC2, 37 °C, replicate 1): 7.586 min⁻¹
FITC-casein degradation rate ([2]; 0.2 μM ClpC2, 37 °C, replicate 2): 7.529 min⁻¹
FITC-casein degradation rate ([2]; 0.2 μM ClpC2, 37 °C, replicate 3): 6.77 min⁻¹
FITC-casein degradation rate ([2]; 0.5 μM ClpC2, 37 °C, replicate 1): 6.271 min⁻¹
FITC-casein degradation rate ([2]; 0.5 μM ClpC2, 37 °C, replicate 2): 6.851 min⁻¹
FITC-casein degradation rate ([2]; 0.5 μM ClpC2, 37 °C, replicate 3): 6.213 min⁻¹
FITC-casein degradation rate ([2]; 1 μM ClpC2, 37 °C, replicate 1): 6.248 min⁻¹
FITC-casein degradation rate ([2]; 1 μM ClpC2, 37 °C, replicate 2): 6.426 min⁻¹
FITC-casein degradation rate ([2]; 1 μM ClpC2, 37 °C, replicate 3): 5.933 min⁻¹
FITC-casein degradation rate ([2]; 2 μM ClpC2, 37 °C, replicate 1): 4.9721 min⁻¹
FITC-casein degradation rate ([2]; 2 μM ClpC2, 37 °C, replicate 2): 4.555 min⁻¹
FITC-casein degradation rate ([2]; 2 μM ClpC2, 37 °C, replicate 3): 5.043 min⁻¹
FITC-casein degradation rate ([2]; 4 μM ClpC2, 37 °C, replicate 1): 4.194 min⁻¹
FITC-casein degradation rate ([2]; 4 μM ClpC2, 37 °C, replicate 2): 4.045 min⁻¹
FITC-casein degradation rate ([2]; 4 μM ClpC2, 37 °C, replicate 3): 3.662 min⁻¹
FITC-casein degradation rate ([2]; 8 μM ClpC2, 37 °C, replicate 1): 3.41 min⁻¹
FITC-casein degradation rate ([2]; 8 μM ClpC2, 37 °C, replicate 2): 3.29 min⁻¹
FITC-casein degradation rate ([2]; 8 μM ClpC2, 37 °C, replicate 3): 3.596 min⁻¹
FITC-casein degradation rate ([2]; 12 μM ClpC2, 37 °C, replicate 1): 3.454 min⁻¹
FITC-casein degradation rate ([2]; 12 μM ClpC2, 37 °C, replicate 2): 2.89 min⁻¹
FITC-casein degradation rate ([2]; 12 μM ClpC2, 37 °C, replicate 3): 2.828 min⁻¹
FITC-casein degradation rate ([2]; 18 μM ClpC2, 37 °C, replicate 1): 3.091 min⁻¹
FITC-casein degradation rate ([2]; 18 μM ClpC2, 37 °C, replicate 2): 2.23 min⁻¹
FITC-casein degradation rate ([2]; 18 μM ClpC2, 37 °C, replicate 3): 2.386 min⁻¹
ClpC2 Western blot signal (ClpC2 [3]): increases by several orders of magnitude
ClpC1 level after CymA (ClpC1 [4]): remained fairly constant
target binding domain (ClpC1 NTD): specifically target ClpC1 NTD
fraction of DNA bound to ClpC2 ([5]; 1 nM ClpC2, replicate 1): 0
fraction of DNA bound to ClpC2 ([5]; 1 nM ClpC2, replicate 2): 0.02788
fraction of DNA bound to ClpC2 ([5]; 1 nM ClpC2, replicate 3): 0.04348
fraction of DNA bound to ClpC2 ([5]; 2 nM ClpC2, replicate 1): 0
fraction of DNA bound to ClpC2 ([5]; 2 nM ClpC2, replicate 2): 0.03704
fraction of DNA bound to ClpC2 ([5]; 2 nM ClpC2, replicate 3): 0.05455
fraction of DNA bound to ClpC2 ([5]; 5 nM ClpC2, replicate 1): 0.09091
fraction of DNA bound to ClpC2 ([5]; 5 nM ClpC2, replicate 2): 0.08
fraction of DNA bound to ClpC2 ([5]; 5 nM ClpC2, replicate 3): 0.06873
fraction of DNA bound to ClpC2 ([5]; 10 nM ClpC2, replicate 1): 0.1629
fraction of DNA bound to ClpC2 ([5]; 10 nM ClpC2, replicate 2): 0.1615
fraction of DNA bound to ClpC2 ([5]; 10 nM ClpC2, replicate 3): 0.1694
fraction of DNA bound to ClpC2 ([5]; 15 nM ClpC2, replicate 1): 0.2974
fraction of DNA bound to ClpC2 ([5]; 15 nM ClpC2, replicate 2): 0.2686
fraction of DNA bound to ClpC2 ([5]; 15 nM ClpC2, replicate 3): 0.2612
fraction of DNA bound to ClpC2 ([5]; 25 nM ClpC2, replicate 1): 0.5671
fraction of DNA bound to ClpC2 ([5]; 25 nM ClpC2, replicate 2): 0.4781
fraction of DNA bound to ClpC2 ([5]; 25 nM ClpC2, replicate 3): 0.3902
fraction of DNA bound to ClpC2 ([5]; 50 nM ClpC2, replicate 1): 0.7982
fraction of DNA bound to ClpC2 ([5]; 50 nM ClpC2, replicate 2): 0.7344
fraction of DNA bound to ClpC2 ([5]; 50 nM ClpC2, replicate 3): 0.731
effect of CymA on ClpC2-operator DNA binding ([5]; EMSA, 1 µM CymA, room temperature, 20 min, pH 7.5): noticeable inhibitory effect on the interaction between ClpC2 and its operator site
growth of ΔclpC2 with CymA (Mycobacterium smegmatis; Msm ΔclpC2, sub-MIC50 CymA (150 nM), 7H9, 37 °C, vs parent strain): diminished growth compared to the parent strain
growth of comclpC2 F99A with CymA (Mycobacterium smegmatis; Msm ΔclpC2 complemented with clpC2 F99A, 150 nM CymA, 7H9, 37 °C): attenuated growth upon exposure to CymA
growth of comclpC2 R188A/R192A with CymA (Mycobacterium smegmatis; Msm ΔclpC2 complemented with clpC2 R188A/R192A, in the presence of CymA): lack of growth impairment
growth of comclpC2 WT with CymA (Mycobacterium smegmatis; Msm ΔclpC2 complemented with clpC2 WT, 150 nM CymA, 7H9, 37 °C): the WT phenotype was restored
activity against Escherichia coli (Escherichia coli): little activity
activity against Staphylococcus aureus (Staphylococcus aureus): little activity
activity against mycobacteria (mycobacteria): effective against mycobacteria
Cq value ClpC2 (clpC2 mRNA; replicate 1): 21.9726
Cq value RpoB (reference gene) (clpC2 mRNA; replicate 1): 23.9629
Cq value ClpC2 (clpC2 mRNA; replicate 2): 21.7648
Cq value RpoB (reference gene) (clpC2 mRNA; replicate 2): 24.1812
Cq value ClpC2 (clpC2 mRNA; replicate 3): 20.9483
Cq value RpoB (reference gene) (clpC2 mRNA; replicate 3): 23.5984
increase in clpC2 mRNA (clpC2 mRNA; one hour, normalised to rpoB, biological n = 3, P = 0.0015 (two-tailed unpaired t test)): 263 fold
ClpC2 level in excess of ClpC1 (ClpC2 [6]): 84 fold
Kd [7]: 2.3 nM
